Here are results for eight compounds from patent US20250108048A1, “STING AGONIST COMPOUNDS AND CONJUGATES” (SUTRO BIOPHARMA, INC., priority 2023, published 2025).

Experiment [1] has as its target T1, hSTING-R232 (Homo sapiens, UniProt Q86WV6, H232R).
T1 construct: host or cells: THP1-Dual KI-hSTING-R232 (from THP1-Dual KO-STING)
The experiment is described as follows: THP1-Dual KI-hSTING-R232 reporter assay (IRF pathway, secreted Lucia luciferase). The class given is cell-based. Conditions: THP1-Dual KI-hSTING-R232 cells, 24 hours; read-out: Reporter assay EC50 (nM) THP-1-R232. The protocol:
(§1) The activities of the STING agonists to activate human or mouse STING pathways were evaluated in THP-1-Dual™, THP1-Dual™ KI-hSTING-R232, THP1-Dual™ KI-hSTING-H232 Cells and THP1-Dual™ KI-mSTING Cells. THP-1-Dual™ cells contains hSTING-HAQ haplotype and can be used to evaluate the activity of STING agonists by monitoring the activation of NF-κB pathway and the […] (IFN regulatory factor) pathways. THP1-Dual™ KO-STING cells were generated from THP1-Dual™ cells by stable knockout of the endogenous HAQ STING gene. THP1-Dual™ KI-hSTING-R232 cells, THP1-Dual™ KI-hSTING-H232 cells and THP1-Dual™ KI-mSTING cells were generated by transfecting THP1-Dual™ KO-STING cells with hSTING-R232 or hSTING-H232 or mSTING. Stimulating these reporter cells with a STING agonist activates TRF pathway and induces the production of a secreted Lucia luciferase in the cell culture medium, which can be determined using QUANTI-Luc™ reagent.
(§2) THP-1-Dual™, THP1-Dual™ KI-hSTING-R232, THP1-Dual™ KI-hSTING-H232 and THP1-Dual™ KI-mSTING reporter cells were purchased from Invivogen and maintained in manufacture recommended culture medium with required supplemental antibiotics. On the day of assay, the cells were harvested with Accutase and counted by the Vi-CELL Cell Viability Analyzers. Cells were resuspended in HEK blue detection medium and a total of 10000 cells were seeded in each well of a 384-well flat bottom plate. […] After incubation at 37° C. in a CO2 incubator for 24 hours, 20 μl of cell culture medium per well was transferred into a 384-well white (opaque) plate. 50 μl of QUANTI-Luc™ assay solution was then added to each well and the plate was immediately transferred to an ENVISION® plate reader to measure luminescence (Perkin-Elmer). Relative luminescence readings were converted to fold change of signal using untreated cells as controls. Data was fitted with non-linear regression analysis, using log (agonist) vs. response, variable slope, 4-parameter fit equation using GraphPad Prism. Data was expressed as fold change in signal vs. dose of STING agonist in nM with error bars indicating the Standard Deviation (SD) of the quadruplicates. There result was reported in Table 2 as EC50 (the midpoint of the curve, or concentration at which […] of the maximum effect was observed).
For orientation: A reporter such as luciferase makes a cellular process visible.

The target in experiment [2] is T2, hSTING-HAQ haplotype (Homo sapiens, UniProt Q86WV6, G230A/H232R/R293Q/R71H).
T2 construct: host or cells: THP-1-Dual
T2 sequence (Q86WV6 whole entry R71H/G230A/H232R/R293Q): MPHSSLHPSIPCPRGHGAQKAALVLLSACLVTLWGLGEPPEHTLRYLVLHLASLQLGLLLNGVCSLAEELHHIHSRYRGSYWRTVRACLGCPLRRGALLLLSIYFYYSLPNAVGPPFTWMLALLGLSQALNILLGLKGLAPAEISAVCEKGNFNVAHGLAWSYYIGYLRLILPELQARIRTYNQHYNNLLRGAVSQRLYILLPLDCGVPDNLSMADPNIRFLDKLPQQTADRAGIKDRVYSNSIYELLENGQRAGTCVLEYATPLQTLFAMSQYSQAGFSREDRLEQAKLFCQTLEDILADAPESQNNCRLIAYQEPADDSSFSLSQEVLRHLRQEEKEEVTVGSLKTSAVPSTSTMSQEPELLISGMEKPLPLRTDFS
Nature of the experiment: THP-1-Dual reporter assay (endogenous hSTING-HAQ). The class given is cell-based. Conditions: THP-1-Dual cells (hSTING-HAQ), 24 hours. As to the method: as §1, §2

Experiment [3] addresses T3, mSTING (Mus musculus, UniProt Q3TBT3).
T3 sequence (Q3TBT3 1-378): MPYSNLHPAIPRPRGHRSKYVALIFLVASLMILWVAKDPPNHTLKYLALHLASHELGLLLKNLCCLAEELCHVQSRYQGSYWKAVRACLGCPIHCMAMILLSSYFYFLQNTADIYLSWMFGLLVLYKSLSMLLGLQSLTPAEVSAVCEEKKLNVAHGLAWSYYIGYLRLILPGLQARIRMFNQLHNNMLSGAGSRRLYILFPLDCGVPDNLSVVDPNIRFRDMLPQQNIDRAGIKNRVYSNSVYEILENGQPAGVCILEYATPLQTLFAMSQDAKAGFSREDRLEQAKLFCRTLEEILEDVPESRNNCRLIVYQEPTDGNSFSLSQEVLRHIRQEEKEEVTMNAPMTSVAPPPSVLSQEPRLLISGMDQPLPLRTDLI
Nature of the experiment: 293-mSTING reporter assay. It counts as cell-based.

Experiment [4] addresses hSTING WT (Homo sapiens, UniProt Q86WV6). The experiment is described as follows: Surface plasmon resonance, hSTING WT. It counts as binding. Particulars: read-out: hSTING WT SPR (Kd).
Experiment [5] addresses T4, hSTING H232 (Homo sapiens, UniProt Q86WV6). The experiment is described as follows: Surface plasmon resonance, hSTING H232. The class given is binding. Conditions: read-out: hSTING H232 SPR (Kd). Background: Surface plasmon resonance follows binding to a sensor surface in real time, without labels.
The target in experiment [6] is hSTING AQ (Homo sapiens, UniProt Q86WV6, G230A/H232R/R293Q). The experiment is described as follows: Surface plasmon resonance, hSTING AQ. The class given is binding. Particulars: read-out: hSTING AQ SPR (Kd).
Chain of hSTING AQ (Q86WV6 whole entry G230A/H232R/R293Q): as the sequence (Q86WV6 whole entry R71H/G230A/H232R/R293Q) above, with H71R counted along it
Experiment [7] has as its target T4, hSTING H232. The experiment is described as follows: THP1-Dual KI-hSTING-H232 reporter assay (IRF pathway, secreted Lucia luciferase). The class given is cell-based. Set-up: host or cells: THP1-Dual KI-hSTING-H232 (from THP1-Dual KO-STING). Conditions: THP1-Dual KI-hSTING-H232 cells, 24 hours; read-out: Reporter assay EC50 (nM) THP-1-H232. As to the method:
as §1, §2

In experiment [8] the target is T3, mSTING. The experiment is described as follows: THP1-Dual KI-mSTING reporter assay. Set-up: host or cells: THP1-Dual KI-mSTING (from THP1-Dual KO-STING). The class given is cell-based. Particulars: THP1-Dual KI-mSTING cells, 24 hours; read-out: Reporter assay EC50 (nM) THP-1 mSTING. As to the method: as §1
THP-1-Dual™, THP1-Dual™ KI-hSTING-R232, THP1-Dual™ KI-hSTING-H232 and THP1-Dual™ KI-mSTING reporter cells were purchased from Invivogen and maintained in manufacture recommended culture medium with required supplemental antibiotics. On the day of assay, the cells were harvested with Accutase and counted by the Vi-CELL Cell Viability Analyzers. Cells were resuspended in HEK blue detection medium and a total of 10000 cells were seeded in each well of a 384-well flat bottom plate. Serial dilutions of STING agonists free drugs (1:3 serial dilution starting from 5 uM) was added into treatment wells. After incubation at 37° C. in a CO2 incubator for 24 hours, 20 μl of cell culture medium per well was transferred into a 384-well white (opaque) plate. 50 μl of QUANTI-Luc™ assay solution was then added to each well and the plate was immediately transferred to an ENVISION® plate reader to measure luminescence (Perkin-Elmer). Relative luminescence readings were converted to fold change of signal using untreated cells as controls. Data was fitted with non-linear regression analysis, using log (agonist) vs. response, variable slope, 4-parameter fit equation using GraphPad Prism. Data was expressed as fold change in signal vs. dose of STING agonist in nM with error bars indicating the Standard Deviation (SD) of the quadruplicates. There result was reported in Table 2 as EC50 (the midpoint of the curve, or concentration at which […] of the maximum effect was observed).

A value given as a limit tells only on which side of the number the result lay.

T4 sequence (Q86WV6 whole entry): as the sequence (Q86WV6 whole entry R71H/G230A/H232R/R293Q) above, with H71R, A230G, R232H, Q293R counted along it
Chain of hSTING WT (Q86WV6 whole entry H232R): as the sequence (Q86WV6 whole entry R71H/G230A/H232R/R293Q) above, with H71R, A230G, Q293R counted along it
T1 sequence (Q86WV6 whole entry H232R): as the sequence (Q86WV6 whole entry R71H/G230A/H232R/R293Q) above, with H71R, A230G, Q293R counted along it

Take `CCn1nc(C)cc1C(=O)Nc1nc2cc(C(N)=O)ccc2n1C/C=C/Cn1c(NC(=O)c2cc(C)nn2CC)nc2cc(C(N)=O)cc(OCCCN3CC4(C3)CN(C(=O)CON=C(C)c3ccc(C[C@H](N)C(=O)O)cc3)CCO4)c21` (racemic) [LP-1-4, rac-(2S)-2-amino-3-[4-[N-[2-[2-[3-[6-carbamoyl-2-[(2-ethyl-5-methyl-pyrazole-3-carbonyl)amino]-3-[rac-(E)-4-[5-carbamoyl-2-[(2-ethyl-5-methyl-pyrazole-3-carbonyl)amino]benzimidazol-1-yl]but-2-enyl]benzimidazol-4-yl]oxypropyl]-5-oxa-2,8-diazaspiro[3.5]nonan-8-yl]-2-oxo-ethoxy]-C-methyl-carbonimidoyl]phenyl]propanoic acid]: the EC50 in experiment [1], in experiment [2], in experiment [3] and in experiment [7] was greater than 150 nM in each case. The Kd in experiment [4], in experiment [5] and in experiment [6] was no more than 20 nM in each case.
Consider `CCn1nc(C)cc1C(=O)Nc1nc2cc(C(N)=O)ccc2n1C/C=C/Cn1c(NC(=O)c2cc(C)nn2CC)nc2cc(C(N)=O)cc(OCCCN3CC4(C3)CN(C(=O)CON)CCO4)c21` [LP-1-1, 7-[3-[8-(2-aminooxyacetyl)-5-oxa-2,8-diazaspiro[3.5]nonan-2-yl]propoxy]-1-[(E)-4-[5-carbamoyl-2-[(2-ethyl-5-methyl-pyrazole-3-carbonyl)amino]benzimidazol-1-yl]but-2-enyl]-2-[(2-ethyl-5-methyl-pyrazole-3-carbonyl)amino]benzimidazole-5-carboxamide], for which the EC50 (commonly the concentration giving half of the maximal effect) was greater than 150 nM in experiment [1], 50 to 150 nM in experiment [2], greater than 150 nM in experiment [3] and greater than 150 nM in experiment [7]. Moreover, the Kd in experiment [4], in experiment [5] and in experiment [6] was no more than 20 nM in each case.
Take `CCn1nc(C)cc1C(=O)Nc1nc2cc(C(N)=O)cc(OC)c2n1C/C=C/Cn1c(NC(=O)c2cc(C)nn2CC)nc2cc(C(N)=O)cc(OCCCN3CC4(CNCCO4)C3)c21` [Compound 6]: the EC50 in experiment [1] was no more than 50 nM; in experiment [2] it was no more than 50 nM; in experiment [3], 50 to 150 nM; in experiment [7] it was no more than 50 nM. Further, the Kd in experiment [4], in experiment [5] and in experiment [6] was no more than 20 nM in each case.
For `CCn1nc(C)cc1C(=O)Nc1nc2cc(C(N)=O)ccc2n1C/C=C/Cn1c(NC(=O)c2cc(C)nn2CC)nc2cc(C(N)=O)cc(OCCCN3CC4(C3)CN(C(=O)CN)CCO4)c21` [Compound 3], the EC50 in experiment [1] was 50 to 150 nM; in experiment [2], 50 to 150 nM; in experiment [3], greater than 150 nM; in experiment [7] it was 50 to 150 nM. Also, the Kd in experiment [4], in experiment [5] and in experiment [6] was no more than 20 nM each time.
For `CCc1nc(C)oc1C(=O)Nc1nc2cc(C(N)=O)cnc2n1C/C=C/Cn1c(NC(=O)c2oc(C)nc2CC)nc2cc(C(N)=O)cc(OCCCO)c21` [Reference Compd B, reference compound], the EC50 is no more than 50 nM in experiment [1], greater than 150 nM in experiment [2], no more than 50 nM in experiment [8] and no more than 50 nM in experiment [7]. Besides, the Kd in experiment [4], in experiment [5] and in experiment [6] was no more than 20 nM each time.
For `CCn1nc(C)cc1C(=O)Nc1nc2cc(C(N)=O)ccc2n1C/C=C/Cn1c(NC(=O)c2cc(C)nn2CC)nc2cc(C(N)=O)cc(OCCCN3CC4(C3)CN(C(=O)[C@@H](N)CC(C)C)CCO4)c21` [Compound 2, (E)-7-(3-(8-(L-leucyl)-5-oxa-2,8-diazaspiro[3.5]nonan-2-yl)propoxy)-1-(4-(5-carbamoyl-2-(1-ethyl-3-methyl-1H-pyrazole-5-carboxamido)-1H-benzo[d]imidazol-1-yl)but-2-en-1-yl)-2-(1-ethyl-3-methyl-1H-pyrazole-5-carboxamido)-1H-benzo[d]imidazole-5-carboxamide], the EC50 in experiment [1] was no more than 50 nM; in experiment [2], 50 to 150 nM; in experiment [3] it was greater than 150 nM; in experiment [7], no more than 50 nM. The Kd in experiment [4], in experiment [5] and in experiment [6] was no more than 20 nM each time.
As to `CCc1nc(C)oc1C(=O)Nc1nc2cc(C(N)=O)cc(OCCCN3CC4(C3)CN(C(=O)[C@@H](N)CC(C)C)CCO4)c2n1C/C=C/Cn1c(NC(=O)c2cc(C)nn2CC)nc2cc(C(N)=O)cc(OC)c21` [Compound 17], the concentration for a half-maximal effect (EC50) in experiment [1], in experiment [2], in experiment [8] and in experiment [7] was no more than 50 nM each time. The Kd in experiment [4], in experiment [5] and in experiment [6] was no more than 20 nM in each case.
`CCn1nc(C)cc1C(=O)Nc1nc2cc(C(N)=O)cnc2n1C/C=C/Cn1c(NC(=O)c2cc(C)nn2CC)nc2cc(C(N)=O)cc(OCCCN3CCC(c4nnc5n4CCNC5)CC3)c21` [Compound 21]: the EC50 in experiment [1] was 50 to 150 nM; in experiment [2] it was greater than 150 nM; in experiment [8] it was greater than 150 nM; in experiment [7], 50 to 150 nM. Besides, the Kd in experiment [4], in experiment [5] and in experiment [6] was no more than 20 nM in each case.
